{"source": "patent US20160016989A1", "about": "“Synthetic Polymers Containing Amino Acid Side Chains” (CHIMEROCHEM LLC, priority 2013, published 2016)", "key": {"[1]": {"test_system": "Histidine specific antibody (polyclonal IgG ab6442 from ABCAM)", "experiment": "Native polyacrylamide gel shift with Histidine specific antibody", "assay_type": "binding", "details": "native 12% polyacrylamide gel; compared to 20-mer polydT controls", "method": "Example using monomer to produce a H-tag. Six His side chain monomers (H) as described in example 1 c2 are added during oligonucleotide synthesis to the 5′ position of a 20mer polydT, such that the final sequence is 5′HHH HHH TTT TTT TTT TTT TTT TTT TT3′. H is used at a concentration of 0.1M in acetonitrile for synthesis. The chimeric polymer is synthesized according to manufacturer's recommendations for the ABI Expedite synthesizer. After deprotection the H-tagged polydT was incubated with Histidine specific antibody (polyclonal IgG ab6442 from ABCAM). A control sample of 20-mer polydT was also incubated with the Histidine specific antibody. A native 12% polyacrylamide (20:1 acrylamide:bis) was loaded with 4 samples: 20-mer polydT, 20-mer polydT+Histidine specific antibody, His-tagged 20-mer polydT, His-tagged 20-mer polydT+Histidine specific antibody."}, "[2]": {"test_system": "VMCs from the left anterior descending, circumflex, and right coronary arteries", "experiment": "Calcium signal (fluo 3 fluorescence) and contractility of single coronary artery VMCs", "assay_type": "cell-based, rhesus monkeys", "details": "images at 1 minute and subsequent time points", "description": "Single VMCs from the left anterior descending, circumflex, and right coronary arteries of adult rhesus monkeys are isolated and studied both as freshly dispersed and as primary cultures. The short-term primary cultured cells (never passaged) maintain the characteristics of the source tissue for 2 to 3 weeks, including contraction, relaxation, receptors, and membrane electrical properties. VMCs are dissociated with collagenase and protease enzymes in a potassium glutamate solution (KG) that prevents loading with Na^+, Ca2^+, or Cl^− and results in a high proportion of viable, contracting cells (Miyagawa et al, Am J Physiol 272:H2645-2654, 1997; Hermsmeyer et, Art Thromb Vasc Biol, 24:955-961, 2004). […]\nFreshly dispersed or primary cultured VMCs on glass coverslips are placed in a chamber of laminar flow design on an Axiovert inverted fluorescence microscope and observed with a Zeiss Plan Neofluar 25X/0.80 water immersion objective. Fluorescence intensity is measured with high sensitivity calibrated video sensor and recorded digitally via computer acquisition and management program. […] Fluorescent images are taken at 1 minute and subsequent time points from which light intensity is equated to changes in calcium signal (fluorescence) and cell contractility."}}}
{"molecule": "5′HHH HHH TTT TTT TTT TTT TTT TTT TT3′ [His-tagged 20-mer polydT]", "values": [{"measurement": "gel shift on addition of the Histidine specific antibody", "setting": "[1]", "result": "gel shift"}]}
{"molecule": "NC(=O)CC[C@@H]1NC(=O)[C@H](Cc2ccccc2)NC(=O)[C@H](Cc2ccc(O)cc2)NC(=O)[C@@H](N)CSSC[C@@H](C(=O)N2CCC[C@H]2C(=O)N[C@@H](CCCN=C(N)N)C(=O)NCC(N)=O)NC(=O)[C@H](CC(N)=O)NC1=O", "note": "[arginine vasopressin]", "values": [{"measurement": "calcium signal (fluorescence)", "setting": "[2]; individual VMC loaded with 3 μM fluo 3", "result": "affect"}, {"measurement": "cell contractility", "setting": "[2]; individual VMC", "result": "affect"}]}
